Assay [1] addresses T1, Prostaglandin G/H synthase 1 (Homo sapiens, UniProt P23219). Description: Inhibition of Prostaglandin G/H synthase 1 (COX-1).
Assay [2] deals with T2, Prostaglandin G/H synthase 2 (Homo sapiens, UniProt P35354).
T2 sequence (P35354 whole entry): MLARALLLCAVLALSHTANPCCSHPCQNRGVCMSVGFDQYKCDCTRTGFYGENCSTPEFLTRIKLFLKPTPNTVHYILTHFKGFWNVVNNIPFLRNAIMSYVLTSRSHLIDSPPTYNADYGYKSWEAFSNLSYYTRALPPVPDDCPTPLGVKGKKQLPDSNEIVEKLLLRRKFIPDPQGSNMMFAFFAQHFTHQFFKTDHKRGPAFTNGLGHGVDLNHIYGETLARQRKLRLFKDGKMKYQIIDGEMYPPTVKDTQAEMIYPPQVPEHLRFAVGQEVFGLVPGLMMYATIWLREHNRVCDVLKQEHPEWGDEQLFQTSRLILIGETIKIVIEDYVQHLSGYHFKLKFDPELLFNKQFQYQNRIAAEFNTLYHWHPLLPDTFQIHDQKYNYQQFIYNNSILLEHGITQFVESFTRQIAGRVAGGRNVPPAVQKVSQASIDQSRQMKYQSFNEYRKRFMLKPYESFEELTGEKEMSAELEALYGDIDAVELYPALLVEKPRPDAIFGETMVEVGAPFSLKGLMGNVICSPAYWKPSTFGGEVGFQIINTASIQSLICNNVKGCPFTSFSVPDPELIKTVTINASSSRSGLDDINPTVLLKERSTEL
Kind of assay: Inhibition of Prostaglandin G/H synthase 2 (COX-2).

The target in assay [3] is T1, Prostaglandin G/H synthase 1. Description: Relative activity against COX-1/COX-2.
In the next assay the test system is Rattus norvegicus. Description: Compound was tested for inhibitory activity in carrageenan rat foot edema assay. The assay is classed as functional.

pIC50: −log10 of the molar value.

T1 sequence (P23219 whole entry): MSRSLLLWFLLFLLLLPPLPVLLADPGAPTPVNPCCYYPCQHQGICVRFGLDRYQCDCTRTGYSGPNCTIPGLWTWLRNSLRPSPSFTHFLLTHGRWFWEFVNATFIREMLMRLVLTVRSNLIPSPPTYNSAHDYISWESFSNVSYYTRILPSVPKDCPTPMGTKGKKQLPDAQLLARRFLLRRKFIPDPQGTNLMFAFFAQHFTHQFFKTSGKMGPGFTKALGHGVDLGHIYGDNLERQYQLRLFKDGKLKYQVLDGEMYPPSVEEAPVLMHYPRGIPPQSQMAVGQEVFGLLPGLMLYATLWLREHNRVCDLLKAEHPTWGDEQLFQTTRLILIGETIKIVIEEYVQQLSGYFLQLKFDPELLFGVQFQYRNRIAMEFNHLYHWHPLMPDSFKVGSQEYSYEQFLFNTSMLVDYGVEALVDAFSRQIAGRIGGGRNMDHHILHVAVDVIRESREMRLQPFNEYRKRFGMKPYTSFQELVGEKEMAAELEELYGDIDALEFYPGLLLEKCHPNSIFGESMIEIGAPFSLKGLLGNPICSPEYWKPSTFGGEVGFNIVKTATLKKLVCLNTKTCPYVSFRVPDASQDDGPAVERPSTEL

For `COc1ccc2c(c1)CSc1c(C(F)(F)F)nn(-c3ccc(S(N)(=O)=O)cc3)c1-2`, the figures for the pIC50 in assay [1] and in assay [2] were 6.52 and 7.89, respectively. For the same compound, the Ratio in assay [3] is 23.

Turning to `NS(=O)(=O)c1ccc(-n2nc(C(F)(F)F)c3c2-c2cc(F)ccc2CS3)cc1`, the pIC50 was 5.20 in assay [1] and 7.68 in assay [2]. Also, the Ratio in assay [3] amounted to 297.

Consider `COc1cc2c(cc1F)-c1c(c(C(F)F)nn1-c1ccc(S(N)(=O)=O)cc1)SC2`, for which the negative logarithm of the IC50 (pIC50) in assay [1] is below 4.00; in assay [2] it was 7.49. For the same compound, the Ratio in assay [3] is above 3120.

In the case of `COc1cc2c(cc1F)-c1c(c(C(F)(F)F)nn1-c1ccc(S(N)(=O)=O)cc1)[S+]([O-])C2` (centres undefined), the pIC50 in assay [1] is below 4.00; in assay [2], 5.82. For the same compound, the Ratio in assay [3] is above 67.

In the case of `NS(=O)(=O)c1ccc(-n2nc(C(F)(F)F)c3c2-c2ccc(F)cc2CS3)cc1`, the pIC50 in assay [1] is 6.57; in assay [2], 7.40. Further, in assay [3], the Ratio stood at 7.

Consider `COc1cc2c(cc1F)-c1c(c(C(F)(F)F)nn1-c1ccc(S(N)(=O)=O)cc1)SC2`, for which the pIC50 in assay [1] is 5.56; in assay [2], 8.05. In the assay with Rattus norvegicus, the ED50 was determined as 17.7 mg/kg. Also, the Ratio in assay [3] is 303.

For the compound `Cc1ccc2c(c1)CSc1c(C(F)(F)F)nn(-c3ccc(S(N)(=O)=O)cc3)c1-2`, the results for the negative-log IC50 (pIC50) in assay [1] and in assay [2] were 6.10 and 7.66, respectively. The Ratio in assay [3] worked out at 36.

Take `NS(=O)(=O)c1ccc(-n2nc(C(F)(F)F)c3c2-c2cc(F)c(F)cc2CS3)cc1`: the pIC50 was 5.57 in assay [1] and 8.22 in assay [2]. Besides, the Ratio in assay [3] was 381.

With `NS(=O)(=O)c1ccc(-n2nc(C(F)(F)F)c3c2-c2ccccc2OC3)cc1`, the negative-log IC50 (pIC50) in assay [2] is 5.88. For the same compound, in assay [3], the Ratio amounted to 5.3.

On to `Cc1cc2c(cc1F)-c1c(c(C(F)(F)F)nn1-c1ccc(S(N)(=O)=O)cc1)SC2`, for which the pIC50 was 4.95 in assay [1] and 7.80 in assay [2]. Moreover, the ED50 with Rattus norvegicus was 15 mg/kg. In addition, in assay [3], the Ratio stood at 693.

In assay [2], `NS(=O)(=O)c1ccc(-n2nc(C(F)(F)F)c3c2-c2ccccc2CS3)cc1` gave a pIC50 of 7.70. Further, the Ratio in assay [3] came out at 20.

`N#Cc1nn(-c2ccc(S(N)(=O)=O)cc2)c2c1SCc1cc(F)ccc1-2`: the pIC50 was 6.12 in assay [1] and 6.85 in assay [2]. For the same compound, the Ratio in assay [3] is 5.

With `COc1cc2c(cc1F)-c1c(c(C(F)(F)F)nn1-c1ccc(S(C)(=O)=O)cc1)SC2`, the results for the pIC50 in assay [1] and in assay [2] were below 4.00 and 7.12, respectively. Further, the Ratio in assay [3] was above 1330.

The values above are taken from ChEMBL document CHEMBL1151064, “Conformationally restricted 1,5-diarylpyrazoles are selective COX-2 inhibitors” (Bioorg Med Chem Lett, 1996).
